Test results published in ChEMBL document CHEMBL6182944, “Substrate Specificity of the Organic Cation Transporters MATE1 and MATE2K and Functional Overlap with OCT1 and OCT2” (J Med Chem, 2025).

Columns and labels:
[1] = molecular target: T1, Multidrug and toxin extrusion protein 1 (Homo sapiens, UniProt Q96FL8); test: Substrate activity at MATE1 (unknown origin) expressed in HEK293 cells assessed as ratio of uptake by the enantiomer with higher value to enantiomer with lower value at 2.5 uM measured after 1 min by HPLC-MS/MS analysis; type: cell-based; conditions: hek293, 1 min
T1 sequence (Q96FL8 whole entry): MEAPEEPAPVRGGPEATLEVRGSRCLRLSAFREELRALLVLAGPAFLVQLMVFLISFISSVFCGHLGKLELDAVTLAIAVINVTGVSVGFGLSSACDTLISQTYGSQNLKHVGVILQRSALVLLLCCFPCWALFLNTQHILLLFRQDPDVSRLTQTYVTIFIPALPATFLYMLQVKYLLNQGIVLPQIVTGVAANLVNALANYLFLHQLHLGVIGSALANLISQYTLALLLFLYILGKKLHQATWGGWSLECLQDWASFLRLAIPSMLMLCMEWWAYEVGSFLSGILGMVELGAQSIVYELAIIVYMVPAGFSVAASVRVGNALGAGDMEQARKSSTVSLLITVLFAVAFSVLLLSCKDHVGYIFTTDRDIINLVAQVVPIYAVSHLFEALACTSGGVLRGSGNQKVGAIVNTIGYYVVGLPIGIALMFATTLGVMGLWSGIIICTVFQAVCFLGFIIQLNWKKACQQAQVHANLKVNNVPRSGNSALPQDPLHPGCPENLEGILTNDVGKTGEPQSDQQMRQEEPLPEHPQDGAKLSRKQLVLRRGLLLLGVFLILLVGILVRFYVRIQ

[2] = molecular target: T2, Multidrug and toxin extrusion protein 2 (Homo sapiens, UniProt Q86VL8); test: Substrate activity at MATE2-K (unknown origin) expressed in HEK293 cells assessed as ratio of uptake by the enantiomer with higher value to enantiomer with lower value at 2.5 uM measured after 1 min by HPLC-MS/MS analysis; type: cell-based; conditions: hek293, 1 min
T2 sequence (Q86VL8 whole entry): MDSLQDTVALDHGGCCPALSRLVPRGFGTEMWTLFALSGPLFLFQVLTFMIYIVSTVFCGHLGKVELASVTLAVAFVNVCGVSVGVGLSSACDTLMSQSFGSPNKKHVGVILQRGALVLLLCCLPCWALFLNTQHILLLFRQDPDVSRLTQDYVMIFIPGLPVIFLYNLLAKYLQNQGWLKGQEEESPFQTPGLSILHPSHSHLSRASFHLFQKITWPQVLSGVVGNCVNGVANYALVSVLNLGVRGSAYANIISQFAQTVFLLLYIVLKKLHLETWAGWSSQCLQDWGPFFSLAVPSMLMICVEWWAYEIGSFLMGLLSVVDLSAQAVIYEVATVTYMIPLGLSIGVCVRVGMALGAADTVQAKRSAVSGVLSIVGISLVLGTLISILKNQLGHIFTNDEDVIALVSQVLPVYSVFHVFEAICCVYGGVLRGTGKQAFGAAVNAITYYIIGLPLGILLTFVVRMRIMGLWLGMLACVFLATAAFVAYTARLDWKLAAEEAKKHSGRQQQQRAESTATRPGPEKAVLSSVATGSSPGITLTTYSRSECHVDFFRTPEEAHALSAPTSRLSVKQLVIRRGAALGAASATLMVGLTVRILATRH

[3] = molecular target: T1, Multidrug and toxin extrusion protein 1; test: Substrate activity at MATE1 (unknown origin) expressed in HEK293 cells assessed as Vmax (maximum transport velocity) by HPLC-MS/MS analysis; type: cell-based
[4] = molecular target: T1, Multidrug and toxin extrusion protein 1; test: Substrate activity at MATE1 (unknown origin) expressed in HEK293 cells assessed as intrinsic clearance by measuring ratio of Vmax (maximum transport velocity) over Km measured per mg of protein by HPLC-MS/MS analysis; type: cell-based
[5] = molecular target: T2, Multidrug and toxin extrusion protein 2; test: Substrate activity at MATE2-K (unknown origin) expressed in HEK293 cells assessed as Vmax (maximum transport velocity) by HPLC-MS/MS analysis; type: cell-based
[6] = molecular target: T2, Multidrug and toxin extrusion protein 2; test: Substrate activity at MATE2-K (unknown origin) expressed in HEK293 cells assessed as intrinsic clearance by measuring ratio of Vmax (maximum transport velocity) over Km measured per mg of protein by HPLC-MS/MS analysis; type: cell-based
MATE1 = molecular target: T3, MATE1 (Homo sapiens, UniProt Q96FL8); test: in vitro
T3 sequence (Q96FL8 whole entry): T1 sequence (Q96FL8 whole entry)

MATE2-K = molecular target: T4, MATE2-K (Homo sapiens, UniProt Q86VL8); test: in vitro
T4 sequence (Q86VL8 whole entry): T2 sequence (Q86VL8 whole entry)

[7] = molecular target: T1, Multidrug and toxin extrusion protein 1; test: Substrate activity at MATE1 (unknown origin) expressed in HEK293 cells assessed as increase in uptake by HPLC-MS/MS analysis; type: cell-based
[8] = molecular target: T2, Multidrug and toxin extrusion protein 2; test: Substrate activity at MATE2-K (unknown origin) expressed in HEK293 cells assessed as increase in uptake by HPLC-MS/MS analysis; type: cell-based
[9] = HEK293 cells expressing MATE2-K

| SMILES | Ratio [1] | Ratio [2] | Vmax [3] [pmol/min] | CL [4] [µL/min] | CL [6] [µL/min] | other results |
| --- | --- | --- | --- | --- | --- | --- |
| O=C(O[C@H]1C[N+]2(CCCOc3ccccc3)CCC1CC2)C(O)(c1cccs1)c1cccs1.[Br-] (mixture of isomers) [ACLIDINIUM BROMIDE] | > 1 | > 1 |  |  |  |  |
| CN(C)CCc1c[nH]c2ccc(CC3COC(=O)N3)cc12 (racemic) |  |  | 2992 | 52.4 | 32.1 | Vmax [5]: 740 pmol/min |
| C#CCNC1CCc2ccccc21 (racemic) | > 1 | > 1 |  |  |  |  |
| CNCCC(Oc1ccccc1C)c1ccccc1 (racemic) | 1 | > 1 |  |  |  |  |
| CNCC(O)c1cccc(O)c1 (racemic) | > 1 | > 1 |  |  |  |  |
| NC1CONC1=O (racemic) | 1 | > 1 |  |  |  |  |
| CC(C)(C)NCC(O)c1ccc(O)c(CO)c1 (racemic) [ALBUTEROL] | > 1 | > 1 |  |  |  | uptake ratio at 1 min, 2.5 µM (MATE1; HEK293 cells expressing MATE1): > 2; uptake ratio at 1 min, 2.5 µM (MATE2-K; [9]): > 2 |
| CCN1CCCC1CNC(=O)c1cc(S(=O)(=O)CC)c(N)cc1OC (racemic) [AMISULPRIDE] | > 1 | > 1 | 238 | 22.4 | 17.8 | uptake ratio at 1 min, 2.5 µM (MATE1; HEK293 cells expressing MATE1): > 2; uptake ratio at 1 min, 2.5 µM (MATE2-K; [9]): > 2 |
| COc1ccccc1OCCNCC(O)COc1cccc2[nH]c3ccccc3c12 (racemic) [CARVEDILOL] | 1 | > 1 |  |  |  |  |
| CN(C)CCCC1(c2ccc(F)cc2)OCc2cc(C#N)ccc21 (racemic) [CITALOPRAM] | > 1 | > 1 |  |  |  |  |
| Cc1cccc(C)c1OCC(C)N (racemic) [MEXILETINE] | > 1 | > 1 |  |  |  | uptake ratio at 1 min, 2.5 µM (MATE1; hek293): < 2; uptake ratio at 1 min, 2.5 µM (MATE2-K; hek293): < 2 |
| COc1ccc(C(CN(C)C)C2(O)CCCCC2)cc1 (racemic) [VENLAFAXINE] | > 1 | > 1 |  |  |  |  |
| O=C(O)c1cn(C2CC2)c2cc(N3CCNCC3)c(F)cc2c1=O [CIPROFLOXACIN] |  |  |  |  |  | Activity [7]: Dose-dependent-effect; Activity [8]: Dose-dependent-effect |
| c1c2c(cc3c1OCO3)-c1cc3ccc4c(c3c[n+]1CC2)OCO4 [COPTISINE] |  |  | 2901 |  |  | Activity [7]: Dose-dependent-effect; Activity [8]: Dose-dependent-effect; uptake ratio at 1 min, 2.5 µM (MATE1; HEK293 cells expressing MATE1): > 2; uptake ratio at 1 min, 2.5 µM (MATE2-K; [9]): > 2 |
| CC(CCc1ccc(O)cc1)NCCc1ccc(O)c(O)c1 (configuration not stated) [DOBUTAMINE] |  |  | 2586 | 29.2 | 5.71 | uptake ratio at 1 min, 2.5 µM (MATE1; HEK293 cells expressing MATE1): > 2; uptake ratio at 1 min, 2.5 µM (MATE2-K; [9]): > 2 |
| NCCc1ccc(O)c(O)c1 [DOPAMINE] |  |  | 10148 | 19.2 | 1.27 | uptake ratio at 1 min, 2.5 µM (MATE1; hek293): > 2; uptake ratio at 1 min, 2.5 µM (MATE2-K; hek293): > 2 |
| CN(C)CCC=C1c2ccccc2COc2ccccc21 [DOXEPIN] | 1 | 1 |  |  |  |  |
| Nc1nc(=O)n([C@@H]2CS[C@H](CO)O2)cc1F [EMTRICITABINE] |  |  | 4523 | 4.56 | 3.02 |  |
| CNC[C@H](O)c1ccc(O)c(O)c1 [EPINEPHRINE] |  |  | 22773 | 21.1 | 1.97 | uptake ratio at 1 min, 2.5 µM (MATE1; hek293): > 2; uptake ratio at 1 min, 2.5 µM (MATE2-K; hek293): > 2 |

| SMILES | Ratio [1] | Ratio [2] | Vmax [3] [pmol/min] | CL [4] [µL/min] | CL [6] [µL/min] | other results |
| --- | --- | --- | --- | --- | --- | --- |
| C[C@H]1N=C(N(C)C)N=C(N)N1 [IMEGLIMIN] |  |  | 6242 | 108 | 34.5 | uptake ratio at 1 min, 2.5 µM (MATE1; HEK293 cells expressing MATE1): > 2; uptake ratio at 1 min, 2.5 µM (MATE2-K; [9]): > 2 |
| Nc1ccn([C@@H]2CS[C@H](CO)O2)c(=O)n1 [LAMIVUDINE] |  |  |  |  |  | Activity [7]: Dose-dependent-effect; Activity [8]: Dose-dependent-effect |
| CC(=O)OC(C)C[N+](C)(C)C (configuration not stated) [METHACHOLINE] |  |  | 17843 | 8.98 | 0.88 | Vmax [5]: 1240 pmol/min; uptake ratio at 1 min, 2.5 µM (MATE1; hek293): > 2; uptake ratio at 1 min, 2.5 µM (MATE2-K; hek293): > 2 |
| C[N@+]1(CC2CC2)CC[C@]23c4c5ccc(O)c4O[C@H]2C(=O)CC[C@@]3(O)[C@H]1C5 [METHYLNALTREXONE] |  |  | 56 |  |  |  |
| CN(C)C(=O)Oc1cccc([N+](C)(C)C)c1 [NEOSTIGMINE] |  |  | 7255 | 45.2 | 8.14 | Activity [7]: Dose-dependent-effect; Activity [8]: Dose-dependent-effect; uptake ratio at 1 min, 2.5 µM (MATE1; HEK293 cells expressing MATE1): > 2; uptake ratio at 1 min, 2.5 µM (MATE2-K; [9]): > 2 |
| NC[C@H](O)c1ccc(O)c(O)c1 [NOREPINEPHRINE] |  |  | 18720 | 10 | 0.59 | Vmax [5]: 673 pmol/min |
| N=C(N)c1ccc(OCCCCCOc2ccc(C(=N)N)cc2)cc1 [PENTAMIDINE] |  |  |  |  |  | Activity [7]: Dose-dependent-effect; Activity [8]: Dose-dependent-effect |
| [H]/N=C(/N)N/C(=N/[H])NCCc1ccccc1 [PHENFORMIN] |  |  | 8451 | 83.9 | 18.6 | Vmax [5]: 1361 pmol/min; uptake ratio at 1 min, 2.5 µM (MATE1; hek293): > 2; uptake ratio at 1 min, 2.5 µM (MATE2-K; hek293): > 2 |
| CNC[C@H](O)c1cccc(O)c1 [PHENYLEPHRINE] |  |  | 11611 | 24.5 | 1.79 | Vmax [5]: 776 pmol/min; uptake ratio at 1 min, 2.5 µM (MATE1; hek293): > 2; uptake ratio at 1 min, 2.5 µM (MATE2-K; hek293): > 2 |
| Cc1ncc(CO)c(CN)c1O [PYRIDOXAMINE] |  |  | 5442 | 3.23 | 0.64 | Vmax [5]: 989.5 pmol/min; uptake ratio at 1 min, 2.5 µM (MATE1; hek293): > 2; uptake ratio at 1 min, 2.5 µM (MATE2-K; hek293): < 2 |
| Cc1ncc(CO)c(CO)c1O [PYRIDOXINE] |  |  | 10014 | 2.37 | 1.2 | uptake ratio at 1 min, 2.5 µM (MATE1; hek293): > 2; uptake ratio at 1 min, 2.5 µM (MATE2-K; hek293): < 2 |
| C#CCN[C@@H]1CCc2ccccc21 [RASAGILINE] |  |  | 194 |  |  |  |
| Cc1cc2nc3c(=O)[nH]c(=O)nc-3n(C[C@H](O)[C@H](O)[C@H](O)CO)c2cc1C [RIBOFLAVIN] |  |  |  |  |  | Activity [7]: Dose-dependent-effect; Activity [8]: Dose-dependent-effect |
| CCN1CCCC1CNC(=O)c1cc(S(N)(=O)=O)ccc1OC (configuration not stated) [SULPIRIDE] |  |  | 851 | 53.2 | 44.9 | Vmax [5]: 1025 pmol/min |
| NCCc1ccc(O)cc1 [TYRAMINE] |  |  | 5948 | 43.6 | 2.71 | Vmax [5]: 2868 pmol/min; uptake ratio at 1 min, 2.5 µM (MATE1; hek293): > 2; uptake ratio at 1 min, 2.5 µM (MATE2-K; hek293): < 2 |
| Nc1ccn([C@H]2CC[C@@H](CO)O2)c(=O)n1 [ZALCITABINE] |  |  | 10171 | 6.53 |  |  |
| O=c1ncccn1[C@@H]1O[C@H](CO)[C@@H](O)[C@H]1O [ZEBULARINE] |  |  |  |  |  | uptake ratio at 1 min, 2.5 µM (MATE1; HEK293 cells expressing MATE1): < 2; uptake ratio at 1 min, 2.5 µM (MATE2-K; [9]): < 2 |
| CN(C)CCc1c[nH]c2ccc(C[C@H]3COC(=O)N3)cc12 [ZOLMITRIPTAN] |  |  | 2992 | 65.2 | 17.6 |  |
